Source: ChEMBL document CHEMBL3856212, “Synthesis, anti-proliferative and genotoxicity studies of 6-chloro-5-(2-substituted-ethyl)-1,3-dihydro-2H-indol-2-ones and 6-chloro-5-(2-chloroethyl)-3-(alkyl/ary-2-ylidene)indolin-2-ones” (Eur J Med Chem, 2016)

Assays:
[1] = Induction of apoptosis in mouse EAC cells at 500 uM after 24 hrs by acridine orange dye-based fluorescence microscopy (reference value: 0.66 +/- 0.33%); assay type: cell-based; conditions: ehrlich
[2] = Cytotoxicity against human KM12 cells assessed as growth inhibition after 48 hrs by SRB assay; assay type: functional; conditions: KM12, 48 h; for CC50: read-out: LD50 (the source's name)
[3] = Cytotoxicity against human HCT15 cells assessed as assessed as growth inhibition at 10^-5 M after 48 hrs by SRB assay relative to control; assay type: functional; conditions: HCT-15, 48 h, read-out: GI
[4] = Cytotoxicity against human COLO205 cells assessed as growth inhibition after 48 hrs by SRB assay; assay type: functional; conditions: COLO 205, 48 h; for CC50: read-out: LD50 (the source's name)
[5] = Cytotoxicity against human RXF393 cells assessed as growth inhibition after 48 hrs by SRB assay; assay type: functional; conditions: RXF 393, 48 h; for CC50: read-out: LD50 (the source's name)
[6] = Cytotoxicity against human OVCAR5 cells assessed as growth inhibition after 48 hrs by SRB assay; assay type: functional; conditions: OVCAR-5, 48 h; for CC50: read-out: LD50 (the source's name)
[7] = Cytotoxicity against human MDA-MB-435 cells assessed as growth inhibition after 48 hrs by SRB assay; assay type: functional; conditions: MDA-MB-435, 48 h; for CC50: read-out: LD50 (the source's name)
[8] = Cytotoxicity against human SNB19 cells assessed as growth inhibition after 48 hrs by SRB assay; assay type: functional; conditions: SNB-19, 48 h; for CC50: read-out: LD50 (the source's name)
[9] = Cytotoxicity against human PC3 cells assessed as growth inhibition after 48 hrs by SRB assay; assay type: functional; conditions: PC-3, 48 h; for CC50: read-out: LD50 (the source's name)
[10] = Cytotoxicity against human LOXIMVI cells assessed as assessed as growth inhibition at 10^-5 M after 48 hrs by SRB assay relative to control; assay type: functional; conditions: LOX IMVI, read-out: GI
[11] = Cytotoxicity against human SKOV3 cells assessed as growth inhibition after 48 hrs by SRB assay; assay type: functional; conditions: SK-OV-3, 48 h; for CC50: read-out: LD50 (the source's name)
[12] = Cytotoxicity against human MALME-3M cells assessed as assessed as growth inhibition at 10^-5 M after 48 hrs by SRB assay relative to control; assay type: functional; conditions: read-out: GI
[13] = Cytotoxicity against human Hs 578T cells assessed as assessed as growth inhibition at 10^-5 M after 48 hrs by SRB assay relative to control; assay type: functional; conditions: read-out: GI
[14] = Cytotoxicity against human U251 cells assessed as growth inhibition after 48 hrs by SRB assay; assay type: functional; conditions: U-251, 48 h; for CC50: read-out: LD50 (the source's name)
[15] = Cytotoxicity against human Caki1 cells assessed as assessed as growth inhibition at 10^-5 M after 48 hrs by SRB assay relative to control; assay type: functional; conditions: CAKI-1, 48 h, read-out: GI
[16] = Cytotoxicity against human K562 cells assessed as growth inhibition after 48 hrs by SRB assay; assay type: functional; conditions: K562, 48 h; for CC50: read-out: LD50 (the source's name)
[17] = Cytotoxicity against human UO31 cells assessed as assessed as growth inhibition at 10^-5 M after 48 hrs by SRB assay relative to control; assay type: functional; conditions: UO-31, 48 h, read-out: GI
[18] = Cytotoxicity against human SK-MEL-5 cells assessed as growth inhibition after 48 hrs by SRB assay; assay type: functional; conditions: SK-MEL-5, 48 h; for CC50: read-out: LD50 (the source's name)
[19] = Cytotoxicity against human MDA-MB-231 cells assessed as growth inhibition after 48 hrs by SRB assay; assay type: functional; conditions: MDA-MB-231, 48 h; for CC50: read-out: LD50 (the source's name)
[20] = Cytotoxicity against human 786-0 cells assessed as assessed as growth inhibition at 10^-5 M after 48 hrs by SRB assay relative to control; assay type: functional; conditions: 786-0, 48 h, read-out: GI
[21] = Cytotoxicity against human BT549 cells assessed as assessed as growth inhibition at 10^-5 M after 48 hrs by SRB assay relative to control; assay type: functional; conditions: BT-549, 48 h, read-out: GI
[22] = Cytotoxicity against human LOXIMVI cells assessed as growth inhibition after 48 hrs by SRB assay; assay type: functional; conditions: LOX IMVI; for CC50: read-out: LD50 (the source's name)
[23] = Cytotoxicity against human OVCAR3 cells assessed as growth inhibition after 48 hrs by SRB assay; assay type: functional; conditions: OVCAR-3, 48 h; for CC50: read-out: LD50 (the source's name)
[24] = Cytotoxicity against human SNB75 cells assessed as growth inhibition after 48 hrs by SRB assay; assay type: functional; conditions: SNB-75, 48 h; for CC50: read-out: LD50 (the source's name)
[25] = Induction of apoptosis in mouse EAC cells at 250 uM after 24 hrs by acridine orange dye-based fluorescence microscopy (reference value: 0.66 +/- 0.33%); assay type: cell-based; conditions: ehrlich
[26] = Cytotoxicity against human TK10 cells assessed as assessed as growth inhibition at 10^-5 M after 48 hrs by SRB assay relative to control; assay type: functional; conditions: TK-10, 48 h, read-out: GI
[27] = Cytotoxicity against human NCI-ADR-RES cells assessed as growth inhibition after 48 hrs by SRB assay; assay type: functional; conditions: for CC50: read-out: LD50 (the source's name)
[28] = Cytotoxicity against human SNB19 cells assessed as assessed as growth inhibition at 10^-5 M after 48 hrs by SRB assay relative to control; assay type: functional; conditions: SNB-19, 48 h, read-out: GI
[29] = Cytotoxicity against human A498 cells assessed as growth inhibition after 48 hrs by SRB assay; assay type: functional; conditions: A498, 48 h; for CC50: read-out: LD50 (the source's name)
[30] = Cytotoxicity against human SK-MEL-5 cells assessed as assessed as growth inhibition at 10^-5 M after 48 hrs by SRB assay relative to control; assay type: functional; conditions: SK-MEL-5, 48 h, read-out: GI
[31] = Cytotoxicity against human NCI-H226 cells assessed as assessed as growth inhibition at 10^-5 M after 48 hrs by SRB assay relative to control; assay type: functional; conditions: NCI-H226, 48 h, read-out: GI
[32] = Cytotoxicity against human IGROV1 cells assessed as assessed as growth inhibition at 10^-5 M after 48 hrs by SRB assay relative to control; assay type: functional; conditions: IGROV-1, 48 h, read-out: GI
[33] = Cytotoxicity against human NCI-H460 cells assessed as assessed as growth inhibition at 10^-5 M after 48 hrs by SRB assay relative to control; assay type: functional; conditions: NCI-H460, 48 h, read-out: GI

With `O=C1Cc2cc(CCN3CCNCC3)c(Cl)cc2N1` the Activity [1] was 0.86%, the GI50 [2] was 3.96 µM and the TGI [2] was greater than 1 µM. The CC50 [2] was greater than 1 µM, the inhibition of growth at 10 µM [3] was 51.2% and the GI50 [4] was 1.97 µM. The TGI [4] was greater than 1 µM, the CC50 [4] was greater than 1 µM and the GI50 [5] was 6.89 µM. The TGI [5] was greater than 1 µM, the CC50 [5] was greater than 1 µM and the GI50 [6] was 7.92 µM. For the same molecule, the TGI [6] was greater than 1 µM, the CC50 [6] was greater than 1 µM and the CC50 [7] was greater than 1 µM. The GI50 [8] was 2.37 µM, the TGI [8] was greater than 1 µM and the CC50 [8] was greater than 1 µM. For the same molecule, the GI50 [9] was 9.83 µM, the TGI [9] was greater than 1 µM and the CC50 [9] was greater than 1 µM. It also gave an inhibition of growth at 10 µM [10] of 21.4%, a GI50 [11] of 1 µM and a TGI [11] greater than 1 µM. The CC50 [11] was greater than 1 µM, the inhibition of growth at 10 µM [12] was 19.6% and the inhibition of growth at 10 µM [13] was 69.9%. The GI50 [14] was 7.79 µM, the TGI [14] was greater than 1 µM and the CC50 [14] was greater than 1 µM. For the same molecule, the inhibition of growth at 10 µM [15] was 37.2%, the GI50 [16] was 6.24 µM and the TGI [16] was greater than 1 µM. For the same molecule, the CC50 [16] was greater than 1 µM, the inhibition of growth at 10 µM [17] was 36.8% and the GI50 [18] was 5.33 µM. It also gave a TGI [18] greater than 1 µM, a CC50 [18] greater than 1 µM and a GI50 [19] of 3.9 µM. For the same molecule, the TGI [19] was greater than 1 µM, the CC50 [19] was greater than 1 µM and the inhibition of growth at 10 µM [20] was 15.3%. The inhibition of growth at 10 µM [21] was 40.9%, the GI50 [22] was 1 µM and the TGI [22] was greater than 1 µM. For the same molecule, the CC50 [22] was greater than 1 µM, the GI50 [23] was 1.41 µM and the TGI [23] was greater than 1 µM. For the same molecule, the CC50 [23] was greater than 1 µM, the GI50 [24] was 1.56 µM and the TGI [24] was 7.54 µM. For the same molecule, the CC50 [24] was greater than 1 µM, the Activity [25] was 1.06% and the inhibition of growth at 10 µM [26] was 10.9%. It also gave a GI50 [27] of 5.11 µM, a TGI [27] greater than 1 µM and a CC50 [27] greater than 1 µM. For the same molecule, the inhibition of growth at 10 µM [28] was 42.4%, the GI50 [29] was 2.85 µM and the TGI [29] was greater than 1 µM. It also gave a CC50 [29] greater than 1 µM, an inhibition of growth at 10 µM [30] of 65.4% and an inhibition of growth at 10 µM [31] of 19.4%. The inhibition of growth at 10 µM [32] was 11% and the inhibition of growth at 10 µM [33] was 25.7%.
Work on `O=C1Cc2cc(CCn3cncn3)c(Cl)cc2N1` yielded an Activity [1] of 0.36%, a GI50 [2] of 5.42 µM and a TGI [2] greater than 1 µM. For the same molecule, the CC50 [2] was greater than 1 µM, the inhibition of growth at 10 µM [3] was 45.4% and the GI50 [4] was 2.33 µM. It also gave a TGI [4] greater than 1 µM, a CC50 [4] greater than 1 µM and a GI50 [5] of 7.48 µM. It also gave a TGI [5] greater than 1 µM, a CC50 [5] greater than 1 µM and a GI50 [6] of 1 µM. The TGI [6] was greater than 1 µM, the CC50 [6] was greater than 1 µM and the GI50 [7] was 3.22 µM. For the same molecule, the TGI [7] was greater than 1 µM, the CC50 [7] was greater than 1 µM and the GI50 [8] was 7.07 µM. For the same molecule, the TGI [8] was greater than 1 µM, the CC50 [8] was greater than 1 µM and the GI50 [9] was 1 µM. It also gave a TGI [9] greater than 1 µM, a CC50 [9] greater than 1 µM and an inhibition of growth at 10 µM [10] of 19%. For the same molecule, the GI50 [11] was 3.65 µM, the TGI [11] was greater than 1 µM and the CC50 [11] was greater than 1 µM. It also gave an inhibition of growth at 10 µM [12] of 6.24%, an inhibition of growth at 10 µM [13] of 71.4% and a GI50 [14] of 1.45 µM. The TGI [14] was greater than 1 µM, the CC50 [14] was greater than 1 µM and the inhibition of growth at 10 µM [15] was 40%. The GI50 [16] was 7.68 µM, the TGI [16] was greater than 1 µM and the CC50 [16] was greater than 1 µM. For the same molecule, the inhibition of growth at 10 µM [17] was 34%, the GI50 [18] was 1.01 µM and the TGI [18] was greater than 1 µM. For the same molecule, the CC50 [18] was greater than 1 µM, the GI50 [19] was 4.66 µM and the TGI [19] was greater than 1 µM. It also gave a CC50 [19] greater than 1 µM, an inhibition of growth at 10 µM [20] of 5.34% and an inhibition of growth at 10 µM [21] of 32%. The GI50 [22] was 1 µM, the TGI [22] was greater than 1 µM and the CC50 [22] was greater than 1 µM. It also gave a GI50 [23] of 1 µM, a TGI [23] greater than 1 µM and a CC50 [23] greater than 1 µM. The GI50 [24] was 1.32 µM, the TGI [24] was greater than 1 µM and the CC50 [24] was greater than 1 µM. For the same molecule, the Activity [25] was 0.63%, the inhibition of growth at 10 µM [26] was -21.7% and the GI50 [27] was 5.85 µM. It also gave a TGI [27] greater than 1 µM, a CC50 [27] greater than 1 µM and an inhibition of growth at 10 µM [28] of 25.6%. For the same molecule, the GI50 [29] was 3.25 µM, the TGI [29] was greater than 1 µM and the CC50 [29] was greater than 1 µM. For the same molecule, the inhibition of growth at 10 µM [30] was 59.9%, the inhibition of growth at 10 µM [31] was 25.2% and the inhibition of growth at 10 µM [32] was 15.3%. It also gave an inhibition of growth at 10 µM [33] of 16.1%.
